Experimental data taken from patent US7863323B1, “Flavonols” (The University of Melbourne, priority 2006, dated 2011).
Entries after “also recorded” stand apart in the source; their conditions may differ. Where two headings read alike, the source gives them in different places.

How the values were obtained:
[1] = system: rat isolated thoracic aorta (aortic rings); assay: Vasorelaxation (direct relaxation assay) in precontracted aortic rings; type: cell-based; details: for Emax: read-out: Rmax (%) maximum response in the relaxation assay; for vasorelaxation activity in the relaxation assay: FIG. 1b, qualitative
Excerpt: (§1) Vascular activity can be tested in standard organ bath assays using rat isolated thoracic aorta. The synthesized flavonols were first assayed for their ability to inhibit contractions induced by phenylephrine (PE), since it has been previously shown that flavonols can act as functional antagonists of PE. Next, the efficacy of the various flavonols would be determined in a direct relaxation assay. […] It was expected that the flavonols should reduce the magnitude of PE-induced contractions in endothelium-intact aortic rings, thus reducing the maximum response (Rmax) for PE-induced contractions.
(§2) Male Sprague-Dawley rats (200-400 g) were euthanised by exposure to 80% CO2, 20% O2, and their chests opened to isolate the thoracic aortae. After the removal of superficial connective tissues, the aorta was cut into ring segments, of approximately 2-3 mm in length. The aortic rings were then mounted between two stainless steel wires, one of which was linked to an isometric force transducer connected to a chart recorder, and the other end anchored to a glass rod submerged in a standard 10 mL organ bath. The organ bath was filled with Krebs-bicarbonate solution [composition (mM): NaCl, 118.0; KCl, 4.7; KH2PO4, 1.2; MgSO4.7H2O, 1.2; glucose, 5.0; NaHCO3, 25.0; CaCl2.2H2O, 2.5]. The bath medium was maintained at 37° C., pH 7.4 and continuously aerated with 95% O2, 5% CO2.
Aortic rings were equilibrated for 1 h at a resting tension of 1 g, then were precontracted with an isotonic, high potassium physiological salt solution (KPSS) in which all of the NaCl of the normal Krebs solution was replaced with KCl (122.7 mM), so as to achieve maximal contraction. The solution was then washed out and replaced with normal Krebs solution. After re-equilibration, the rings were submaximally contracted with phenylephrine (PE, 10^−8-10^−7 M) and endothelial integrity was tested by a single dose of acetylcholine (Ach, 10^−5 M). Only rings that responded to Ach (≧90% relaxation) were judged endothelium intact and were used in the subsequent experiments. The aortic rings were then re-equilibrated (15 min) before the subsequent experiment.
Aortic rings were precontracted submaximally with phenylephrine (10^−8-10^−7 M) and the thromboxane mimetic, 9,11-dideoxy-9α,11α-epoxymethano-prostaglandin F2α (U46619, 10^−10-10^−9 M) to approximately 50% of KPSS-induced contraction. After stabilization of the contraction, cumulative doses of the flavonol or vehicle (10^−10-10^−4 M) were added to generate a concentration-response curve. Relaxant responses were expressed as a percentage of the precontraction tension.
The results are expressed as the mean±s.e. mean and n indicates the number of experiments (rats). Relaxation concentration-response curves for diOHF were computer fitted to a sigmoidal curve using non-linear regression (Prism version 4) to enable calculation of pEC50 of the flavonols. […] Maximum relaxation responses were compared using a one way analysis of variance (ANOVA) with post-hoc multiple comparison using Newman-Keuls test. Superoxide levels were compared using a one way analysis of variance (ANOVA) with post hoc multiple comparison using Dunnett's test.

[2] = system: rat isolated thoracic aorta (endothelium-intact aortic rings), PE-induced contractions; assay: Effect of flavonols on phenylephrine-induced vasoconstriction (organ bath); type: cell-based; details: FIG. 1a, compared with diOHF, qualitative
Excerpt: as §1, §2
Aortic rings were equilibrated for 1 h at a resting tension of 1 g, then were precontracted with an isotonic, high potassium physiological salt solution (KPSS) in which all of the NaCl of the normal Krebs solution was replaced with KCl (122.7 mM), so as to achieve maximal contraction. The solution was then washed out and replaced with normal Krebs solution. […]
Aortic rings were incubated with a β-adrenoceptor antagonist, propranolol (10^−5 M), and either vehicle or flavonol (10^−4-10^−5 M) for 15 min before cumulative doses of phenylephrine (10^−9-10^−4.5 M) were added to generate a concentration-response curve to phenylephrine. Contraction responses were expressed as a percentage of KPSS-induced tension.

[3] = Solubility of succinamic acid flavonols in 0.1 M Na2CO3 solution; type: physicochemical; details: for maximum concentrations attained: in 0.1 M Na2CO3 solution; for solubility in comparison with the unmodified moiety: qualitative
Protocol: Acetylcholine perchlorate was obtained from BDH Chemicals (Poole, Dorset, England). Phenylephrine and propranolol was purchased from Sigma-Aldrich Pty. Ltd. (Castle Hill, NSW, Australia). DiOHF was purchased from Indofine Chemical Co. Inc. (Belle Mead, N.J., U.S.A.). All other flavonols were synthesized in this study. […] was purchased from Cayman Chemical (Ann Arbor, Mich., U.S.A.). All chemicals were dissolved in distilled water, except the following. DiOHF was dissolved in 10% dimethyl sulphoxide (DMSO), 90% methanol, with subsequent dilutions in 50% methanol (10^−3 M), and distilled water (10^−4-10^−7 M). Succinamic acid-substituted flavonols were dissolved in 0.1 M Na2CO3 as a stock solution (B and C at 10^−1 and D at 10^−2 M), and further diluted in distilled water as required.

[4] = system: superoxide (NADPH oxidase-driven) in isolated rat aortic rings; assay: Lucigenin-enhanced chemiluminescence assay of superoxide in isolated aortic rings; type: cell-based; details: rat aortic rings incubated with NADPH; FIG. 2; compared with diOHF; qualitative
Protocol: Since the vascular activity of the synthesized flavonols was attenuated, it was of great interest to test these compounds for antioxidant activity. Antioxidant activity can be assessed in a tissue-based lucigenin-enhanced chemiluminescence assay. Isolated rat aortic rings were incubated with NADPH and the various flavonols. NADPH, a substrate for NADPH oxidase in the vasculature, increases superoxide production. Superoxide that is produced reacts with lucigenin, leading to the emission of photons, which can be quantified to give a measure of superoxide levels.
Superoxide concentrations were measured in isolated aortic rings by lucigenin-enhanced chemiluminescence. Prior to assaying, the aortic rings were incubated at 37° C. for 1 h in Krebs-EPES buffer containing DETCA (3×10^−5 M), which inactivates superoxide dismutase, NADPH (10^−4 M) and either vehicle, succinamic acid-substituted flavonol (10^−4 or 10^−5 M) or diOHF (10^−4 or 10^−5 M). Assay solutions consisting of lucigenin (5×10^−6 M), NADPH (10^−4 M) and either vehicle (DMSO), succinamic acid-substituted flavonol (10^−4 or 10^−5 M) or 3′,4′-dihydroxyflavonol (diOHF, 10^−4 or 10^−5 M), as a positive control, were prepared in Krebs-HEPES buffer [composition (mM): NaCl, 99.0; KCl, 4.7; KH2PO4, 1.0; MgSO4.7H2O, 1.2; glucose, 11.0; NaHCO3, 25.0; CaCl2.2H2O, 2.5; Na-HEPES, 20.0]. 300 μL aliquots of the assay solution were placed into separate wells on a 96-well Optiplate, which was loaded into a TopCount single photon counter (Packard Bioscience) to determine the background emission (12 cycles). After background counting was completed, one aortic ring was added per well, and photon emission was counted (12 cycles). Superoxide levels were reported as a percentage of photon emission for +NADPH control. At the conclusion of the assay, the aortic rings were dried for 48 h at 80° C. for normalization of superoxide production to dry tissue weight.
The results are expressed as the mean±s.e. mean and n indicates the number of experiments (rats). […]

[5] = rat aortic rings precontracted with phenylephrine and U46619, percentage of precontraction tension, mean ± s.e. mean

| SMILES | Emax ([1]; Rattus norvegicus) [%] | EC50 ([1]; Rattus norvegicus, read-out: pEC50 (relaxation) (converted)) [µM] | inhibition of PE-induced contractions (vascular activity) [2] | maximum concentrations attained [3] | solubility in comparison with the unmodified moiety [3] | antioxidant activity (superoxide levels) [4] | vasorelaxation activity in the relaxation assay [1] | Emax [1, 5] [%] |
| --- | --- | --- | --- | --- | --- | --- | --- | --- |
| O=c1c(O)c(-c2ccc(O)c(O)c2)oc2ccccc12 [diOHF, 3′,4′-dihydroxyflavonol, reference compound] | 105 ± 2 | 4.68 |  |  |  |  |  |  |
| O=C(O)CCC(=O)Nc1ccc2oc(-c3ccc(O)cc3)c(O)c(=O)c2c1 [C, 4′-Hydroxy-6-(hydroxycarbonylethylcarbonylamino)flavonol] |  |  | less effective than diOHF | 10^−1 M | improved solubility | little effect | weak vasorelaxation activity | 80 ± 5 |
| O=C(O)CCC(=O)Nc1ccc2oc(-c3ccccc3)c(O)c(=O)c2c1 [B, 6-(Hydroxycarbonylethylcarbonylamino)flavonol] |  |  | less effective than diOHF | 10^−1 M | improved solubility | moderate to good antioxidant activity | weak vasorelaxation activity | 47 ± 2 |
| O=C(O)CCC(=O)Nc1ccc2oc(-c3ccc(O)c(O)c3)c(O)c(=O)c2c1 [D, 3′,4′-Dihydroxy-6-(hydroxycarbonylethylcarbonylamino)flavonol] |  |  | less effective than diOHF; also recorded: vascular activity was completely abolished | 10^−2 M | improved solubility | moderate to good antioxidant activity; also recorded: superoxide levels were substantially reduced | slight contractions were observed at high concentrations | -25 ± 3 |
